≈ marks a conversion by molar mass, not a printed value.
Tests used:
[1] = Solubility of the compound in 0.1N HCl; assay type: physicochemical
[2] = Solubility of the compound in phosphate buffered saline; assay type: physicochemical
[3] = Solubility of the compound in simulated intestinal fluid; assay type: physicochemical
[4] = Intrinsic clearance in rat liver microsomes; assay type: ADME, Microsome; settings: read-out: CLH
[5] = Intrinsic clearance in mouse liver microsomes; assay type: ADME, Microsome; settings: read-out: CLH
[6] = Intrinsic clearance in human liver microsomes; assay type: ADME, Microsome; settings: read-out: CLH
[7] = Plasma protein binding in rat by equilibrium dialysis; assay type: ADME, cell-free; settings: read-out: PPB (converted)
[8] = Plasma protein binding in mouse by equilibrium dialysis; assay type: ADME, cell-free; settings: read-out: PPB (converted)
[9] = Plasma protein binding in human by equilibrium dialysis; assay type: ADME, cell-free; settings: read-out: PPB (converted)
[10] = Clearance in Sprague-Dawley rat at 0.25 mg/kg, iv; assay type: ADME, organism-based; parameters: dose 0.25 mg/kg, route intravenous; settings: in vivo
[11] = Volume of distribution at steady state in Sprague-Dawley rat at 0.25 mg/kg, iv; assay type: ADME, organism-based; parameters: dose 0.25 mg/kg, route intravenous; settings: in vivo, read-out: Vdss
[12] = Half life in Sprague-Dawley rat at 0.25 mg/kg, iv; assay type: ADME, organism-based; parameters: dose 0.25 mg/kg, route intravenous; settings: in vivo
[13] = AUC (0 to infinity) in Sprague-Dawley rat at 2 mg/kg, po; assay type: ADME, organism-based; parameters: time infinity, dose 2 mg/kg, route oral; settings: plasma
[14] = Oral bioavailability in Sprague-Dawley rat at 2 mg/kg; assay type: ADME, organism-based; settings: in vivo
[15] = target: Vascular endothelial growth factor receptor 2 (Homo sapiens) (UniProt P35968); assay: Inhibition of VEGFR2 assessed as remaining activity at 1 uM relative to control
[16] = target: Mast/stem cell growth factor receptor Kit (Homo sapiens) (UniProt P10721); assay: Inhibition of KIT assessed as remaining activity at 1 uM relative to control
[17] = target: Platelet-derived growth factor receptor beta (Homo sapiens) (UniProt P09619); assay: Inhibition of PDGFRB assessed as remaining activity at 1 uM relative to control
Mus musculus = assay: Inhibition of HGF-induced phosphorylation of c-Met in BALB/c mice mouse liver at 10 mg/kg, po administered 1 to 24 hrs before HGF-induction measured after 5 mins; assay type: functional
Plasma = assay: Plasma concentration in BALB/c mouse at 10 mg/kg, po; assay type: ADME, organism-based; parameters: dose 10 mg/kg, route oral; settings: in vivo

Sequence of Platelet-derived growth factor receptor beta (Homo sapiens) (P09619 whole entry): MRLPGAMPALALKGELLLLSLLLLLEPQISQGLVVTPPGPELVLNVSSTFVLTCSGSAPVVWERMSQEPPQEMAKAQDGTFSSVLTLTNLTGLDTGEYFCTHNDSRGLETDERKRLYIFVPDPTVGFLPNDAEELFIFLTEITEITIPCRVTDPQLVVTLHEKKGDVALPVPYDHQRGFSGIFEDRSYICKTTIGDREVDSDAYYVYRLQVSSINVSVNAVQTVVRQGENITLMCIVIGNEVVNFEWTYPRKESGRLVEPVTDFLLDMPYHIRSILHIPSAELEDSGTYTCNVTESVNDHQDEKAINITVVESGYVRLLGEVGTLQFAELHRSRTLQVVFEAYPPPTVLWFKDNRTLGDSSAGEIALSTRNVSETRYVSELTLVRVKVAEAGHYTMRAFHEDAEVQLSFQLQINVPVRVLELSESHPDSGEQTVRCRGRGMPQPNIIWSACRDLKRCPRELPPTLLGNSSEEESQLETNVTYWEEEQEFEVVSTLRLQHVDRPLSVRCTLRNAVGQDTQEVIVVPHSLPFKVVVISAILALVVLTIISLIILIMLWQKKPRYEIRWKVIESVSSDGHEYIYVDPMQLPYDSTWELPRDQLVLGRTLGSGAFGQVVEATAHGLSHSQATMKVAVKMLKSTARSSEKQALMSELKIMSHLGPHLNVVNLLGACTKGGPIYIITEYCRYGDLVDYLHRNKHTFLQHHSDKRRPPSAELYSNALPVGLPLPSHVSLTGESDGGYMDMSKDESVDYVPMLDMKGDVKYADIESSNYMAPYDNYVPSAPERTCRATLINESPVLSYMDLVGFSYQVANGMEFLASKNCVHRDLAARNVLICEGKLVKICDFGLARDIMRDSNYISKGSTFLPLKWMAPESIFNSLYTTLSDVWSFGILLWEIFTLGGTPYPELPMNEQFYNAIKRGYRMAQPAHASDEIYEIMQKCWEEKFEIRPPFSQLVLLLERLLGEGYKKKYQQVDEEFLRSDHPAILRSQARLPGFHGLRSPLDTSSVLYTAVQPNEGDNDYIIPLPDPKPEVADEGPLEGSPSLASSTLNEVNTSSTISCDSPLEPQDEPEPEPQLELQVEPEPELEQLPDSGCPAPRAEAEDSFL
Sequence of Mast/stem cell growth factor receptor Kit (Homo sapiens) (P10721 whole entry): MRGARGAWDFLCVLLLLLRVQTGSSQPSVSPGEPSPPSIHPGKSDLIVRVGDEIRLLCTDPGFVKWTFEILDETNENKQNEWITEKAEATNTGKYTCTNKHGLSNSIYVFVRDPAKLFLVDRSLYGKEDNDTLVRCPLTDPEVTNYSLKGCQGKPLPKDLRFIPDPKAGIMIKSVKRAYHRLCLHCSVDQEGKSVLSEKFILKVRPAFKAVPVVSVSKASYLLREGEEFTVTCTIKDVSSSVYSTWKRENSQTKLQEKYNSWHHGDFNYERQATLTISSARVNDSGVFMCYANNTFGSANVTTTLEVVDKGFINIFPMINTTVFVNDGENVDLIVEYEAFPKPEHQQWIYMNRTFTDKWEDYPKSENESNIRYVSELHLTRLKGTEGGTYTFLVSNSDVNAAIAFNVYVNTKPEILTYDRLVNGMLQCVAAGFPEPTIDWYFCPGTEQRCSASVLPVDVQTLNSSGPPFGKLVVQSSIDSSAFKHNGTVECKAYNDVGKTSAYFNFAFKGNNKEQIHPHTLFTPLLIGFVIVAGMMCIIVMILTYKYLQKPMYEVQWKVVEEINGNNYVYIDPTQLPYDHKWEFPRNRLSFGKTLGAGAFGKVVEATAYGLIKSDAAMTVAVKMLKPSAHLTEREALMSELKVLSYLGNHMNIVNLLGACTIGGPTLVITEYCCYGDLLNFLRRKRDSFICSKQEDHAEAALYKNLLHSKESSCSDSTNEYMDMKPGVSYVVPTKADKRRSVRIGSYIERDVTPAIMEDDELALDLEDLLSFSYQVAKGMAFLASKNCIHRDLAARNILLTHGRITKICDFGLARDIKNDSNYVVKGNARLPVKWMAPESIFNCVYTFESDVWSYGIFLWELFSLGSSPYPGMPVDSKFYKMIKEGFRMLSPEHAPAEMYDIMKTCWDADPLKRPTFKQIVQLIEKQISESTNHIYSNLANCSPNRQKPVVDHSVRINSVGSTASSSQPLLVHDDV
Sequence of Vascular endothelial growth factor receptor 2 (Homo sapiens) (P35968 whole entry): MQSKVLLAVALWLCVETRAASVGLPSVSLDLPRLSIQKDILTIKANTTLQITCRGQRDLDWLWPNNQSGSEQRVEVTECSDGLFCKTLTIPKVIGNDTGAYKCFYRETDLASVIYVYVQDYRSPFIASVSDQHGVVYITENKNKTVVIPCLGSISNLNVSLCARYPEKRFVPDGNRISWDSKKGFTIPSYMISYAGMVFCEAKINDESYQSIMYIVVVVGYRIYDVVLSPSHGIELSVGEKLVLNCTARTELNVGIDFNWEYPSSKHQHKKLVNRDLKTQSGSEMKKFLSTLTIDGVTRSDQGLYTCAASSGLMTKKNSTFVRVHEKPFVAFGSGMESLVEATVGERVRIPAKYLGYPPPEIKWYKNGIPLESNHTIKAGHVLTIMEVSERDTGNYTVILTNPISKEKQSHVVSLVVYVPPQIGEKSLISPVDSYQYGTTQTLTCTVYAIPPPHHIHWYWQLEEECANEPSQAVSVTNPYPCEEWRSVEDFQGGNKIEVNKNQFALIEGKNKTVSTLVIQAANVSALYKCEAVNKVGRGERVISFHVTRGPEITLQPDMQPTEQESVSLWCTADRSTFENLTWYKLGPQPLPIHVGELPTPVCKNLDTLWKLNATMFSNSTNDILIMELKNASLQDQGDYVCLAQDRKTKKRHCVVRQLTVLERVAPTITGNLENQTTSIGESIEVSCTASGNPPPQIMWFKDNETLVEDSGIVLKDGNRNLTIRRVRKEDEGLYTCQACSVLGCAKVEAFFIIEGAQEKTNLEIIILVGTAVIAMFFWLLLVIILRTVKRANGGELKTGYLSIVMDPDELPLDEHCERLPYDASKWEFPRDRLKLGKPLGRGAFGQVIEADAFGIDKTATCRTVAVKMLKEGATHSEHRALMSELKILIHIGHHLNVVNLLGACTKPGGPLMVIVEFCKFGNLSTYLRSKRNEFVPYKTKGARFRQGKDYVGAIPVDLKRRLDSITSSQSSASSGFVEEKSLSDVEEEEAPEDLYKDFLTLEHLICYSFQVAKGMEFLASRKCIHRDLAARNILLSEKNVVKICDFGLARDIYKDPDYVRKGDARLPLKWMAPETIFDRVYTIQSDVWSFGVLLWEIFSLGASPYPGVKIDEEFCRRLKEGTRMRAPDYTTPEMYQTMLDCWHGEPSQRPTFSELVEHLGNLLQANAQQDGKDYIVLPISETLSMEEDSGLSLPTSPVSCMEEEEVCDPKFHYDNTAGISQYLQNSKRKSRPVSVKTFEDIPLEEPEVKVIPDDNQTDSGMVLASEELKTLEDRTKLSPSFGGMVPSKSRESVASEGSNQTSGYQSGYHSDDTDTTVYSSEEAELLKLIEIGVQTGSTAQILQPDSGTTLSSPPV

solubility [1] | solubility [2] | solubility [3] | microsomal CLint [4] | microsomal CLint [5] | microsomal CLint [6] | fraction unbound [7] | fraction unbound [8] | fraction unbound [9] | clearance [10] | Vd [11] | half-life [12] | AUC(0-inf) [13] | bioavailability [14] | Activity [15] | Activity [16] | Activity [17] | concentration (Plasma) | SMILES | inhibition in vivo at 10 mg/kg (Mus musculus)
43.2 µg/mL (≈ 115 µM) | 2.2 µg/mL (≈ 5.84 µM) | < 1 µg/mL |  |  |  |  |  |  |  |  |  |  |  |  |  |  |  | Cc1cc(N2CCc3nnn(Cc4ccc5ncccc5c4)c3C2=O)sn1 | 
80.1 µg/mL (≈ 214 µM) | < 1 µg/mL | 4.8 µg/mL (≈ 12.8 µM) |  |  |  |  |  |  |  |  |  |  |  |  |  |  |  | Cc1cc(-n2ccc3nnn(Cc4ccc5ncccc5c4)c3c2=O)sn1 | 
≥ 200 µg/mL | ≥ 200 µg/mL | 60.4 µg/mL (≈ 170 µM) |  |  |  |  |  |  |  |  |  |  |  |  |  |  |  | O=C1c2c(nnn2Cc2ccc3ncccc3c2)CCN1c1ccccc1 | 
128 µg/mL (≈ 267 µM) | 11.1 µg/mL (≈ 23.2 µM) | 37.7 µg/mL (≈ 79 µM) | 105 µL/min/mg | 98 µL/min/mg | 120 µL/min/mg | 0.02 | 0.044 | 0.045 | 18.8 mL/min/kg | 2.38 L/kg | 109 min | 638 ng·h/mL | 36% |  |  |  |  | COCCOc1cnc2ccc([C@H](C)n3nnc4ccn(-c5ccc(F)c(F)c5)c(=O)c43)cc2c1 | 
37 µg/mL (≈ 80 µM) | 8.7 µg/mL (≈ 18.8 µM) | 39.7 µg/mL (≈ 85.8 µM) | 89 µL/min/mg | 68 µL/min/mg | 84 µL/min/mg | 0.018 | 0.027 | 0.012 | 9.32 mL/min/kg | 2.53 L/kg | 204 min | 1560 ng·h/mL | 43% | 34% | 26% | 10% | < 200 nM | COCCOc1cnc2ccc([C@H](C)n3nnc4ccn(-c5cc(C)ns5)c(=O)c43)cc2c1 | 89%
≥ 200 µg/mL | 4.5 µg/mL (≈ 11.6 µM) | 22.4 µg/mL (≈ 57.7 µM) |  |  |  |  |  |  |  |  |  |  |  |  |  |  |  | Cc1cc(-n2ccc3nnn([C@@H](C)c4ccc5ncccc5c4)c3c2=O)sn1 | 
13.7 µg/mL (≈ 30.5 µM) | 2.5 µg/mL (≈ 5.57 µM) | 9.8 µg/mL (≈ 21.9 µM) |  |  |  |  |  |  |  |  |  |  |  |  |  |  |  | COCCOc1cnc2ccc(Cn3nnc4ccn(-c5cc(C)ns5)c(=O)c43)cc2c1 | 

— ChEMBL document CHEMBL2029295, “Discovery and optimization of a potent and selective triazolopyridinone series of c-Met inhibitors” (Bioorg Med Chem Lett, 2012)
